According to PubChem BioAssay AID222 (DTP/NCI, 2004):
Several values for one entry are separate records, joined by “and”; a condition that tells them apart may be missing. Equal values may be shown once. Toxic doses and inconclusive results are not listed. How the source made its calls: active means survival T/C of 150% or more; inactive means T/C below 125% in these data.

System: C57BL/6 mice, intracerebral ependymoblastoma, median survival T/C
Test: NCI In Vivo Anticancer Drug Screen. Data for tumor model Ependymoblastoma (intracerebral) in C57BL/6 mice
Details: endpoint: median survival time, higher = longer survival
Description: The antitumor activity of compounds was measured in mice bearing transplantable tumors. Survival or tumor size were measured and the results are expressed as the measurement made in the treated group (T) divided by the measurement made in the vehicle treated control group (C). The tumor model used in this assay is Ependymoblastoma (intracerebral) in C57BL/6 mice

[1] = dose: 0.5 mg/kg/injection, schedule: Q01DX005 (ip), vehicle: saline
[2] = dose: 1.0 mg/kg/injection, schedule: Q01DX005 (ip), vehicle: saline
[3] = dose: 2.0 mg/kg/injection, schedule: Q01DX005 (ip), vehicle: saline
[4] = dose: 0.75 mg/kg/injection, schedule: Q01DX009 (ip), vehicle: Klucel (hydroxypropylcellulose) (HPC)
[5] = dose: 1.5 mg/kg/injection, schedule: Q01DX009 (ip), vehicle: Klucel (hydroxypropylcellulose) (HPC)
[6] = dose: 3.0 mg/kg/injection, schedule: Q01DX009 (ip), vehicle: Klucel (hydroxypropylcellulose) (HPC)
[7] = dose: 6.25 mg/kg/injection, schedule: Q01DX005 (ip), vehicle: Klucel (hydroxypropylcellulose) (HPC)
[8] = dose: 12.5 mg/kg/injection, schedule: Q01DX005 (ip), vehicle: Klucel (hydroxypropylcellulose) (HPC)

Measured: T/C

N[C@@H](Cc1ccc(N(CCCl)CCCl)cc1)C(=O)O
inactive: dose: 0.5 mg/kg/injection, schedule: Q01DX001 (ip), vehicle: saline 103 % of control | [1] 106 % of control and 110 % of control | dose: 1.0 mg/kg/injection, schedule: Q01DX001 (ip), vehicle: saline 88 % of control | [2] 96 % of control and 109 % of control and 110 % of control | dose: 2.0 mg/kg/injection, schedule: Q01DX001 (ip), vehicle: saline 102 % of control | [3] 98 % of control and 108 % of control | dose: 4.0 mg/kg/injection, schedule: Q01DX005 (ip), vehicle: saline 111 % of control | dose: 8.0 mg/kg/injection, schedule: Q01DX001 (ip), vehicle: saline 119 % of control | dose: 8.0 mg/kg/injection, schedule: Q01DX005 (ip), vehicle: saline 100 % of control

O=C1NC(=O)C2(CCc3ccc(N(CCCl)CCCl)cc32)N1 (configuration not stated)
inactive: [4] 93 % of control | [5] 101 % of control | [6] 115 % of control | dose: 6.0 mg/kg/injection, schedule: Q01DX009 (ip), vehicle: Klucel (hydroxypropylcellulose) (HPC) 98 % of control | [7] 114 % of control | dose: 12.0 mg/kg/injection, schedule: Q01DX009 (ip), vehicle: Klucel (hydroxypropylcellulose) (HPC) 91 % of control | [8] 115 % of control | dose: 25.0 mg/kg/injection, schedule: Q01DX005 (ip), vehicle: Klucel (hydroxypropylcellulose) (HPC) 102 % of control

CCC1=C[C@H]2CN(CCc3c([nH]c4ccccc34)[C@@](C(=O)OC)(c3cc4c(cc3OC)N(C)[C@H]3[C@@](O)(C(=O)NC)[C@H](OC(C)=O)[C@]5(CC)C=CCN6CC[C@]43[C@@H]65)C2)C1
inactive: dose: 0.05 mg/kg/injection, schedule: Q01DX005 (ip), vehicle: Klucel (hydroxypropylcellulose) (HPC) 105 % of control | dose: 0.1 mg/kg/injection, schedule: Q01DX005 (ip), vehicle: Klucel (hydroxypropylcellulose) (HPC) 98 % of control | dose: 0.2 mg/kg/injection, schedule: Q01DX005 (ip), vehicle: Klucel (hydroxypropylcellulose) (HPC) 107 % of control | dose: 0.4 mg/kg/injection, schedule: Q01DX005 (ip), vehicle: Klucel (hydroxypropylcellulose) (HPC) 103 % of control | dose: 0.8 mg/kg/injection, schedule: Q01DX005 (ip), vehicle: Klucel (hydroxypropylcellulose) (HPC) 93 % of control

Cc1c2cc[n+](C)cc2c(C)c2c1[nH]c1ccc(O)cc12
inactive: dose: 0.12 mg/kg/injection, schedule: Q01DX005 (ip), vehicle: saline 100 % of control | dose: 0.25 mg/kg/injection, schedule: Q01DX005 (ip), vehicle: saline 101 % of control and 112 % of control | [1] 101 % of control

CCC1(O)CC2CN(CCc3c([nH]c4ccccc34)C(C(=O)OC)(c3cc4c(cc3OC)N(C)C3C(O)(C(=O)NCCO)C(O)C5(CC)C=CCN6CCC43C65)C2)C1 (configuration not stated)
inactive: dose: 0.05 mg/kg/injection, schedule: Q01DX005 (ip), vehicle: saline 108 % of control | dose: 0.1 mg/kg/injection, schedule: Q01DX005 (ip), vehicle: saline 113 % of control | dose: 0.2 mg/kg/injection, schedule: Q01DX005 (ip), vehicle: saline 117 % of control | dose: 0.4 mg/kg/injection, schedule: Q01DX005 (ip), vehicle: saline 108 % of control | dose: 0.8 mg/kg/injection, schedule: Q01DX005 (ip), vehicle: saline 108 % of control

O=C(CCBr)N1CCN(C(=O)CCBr)CC1
inactive: dose: 2.5 mg/kg/injection, schedule: Q01DX005 (ip), vehicle: saline with Tween-80 98 % of control | dose: 5.0 mg/kg/injection, schedule: Q01DX005 (ip), vehicle: saline with Tween-80 103 % of control | dose: 10.0 mg/kg/injection, schedule: Q01DX005 (ip), vehicle: saline with Tween-80 92 % of control | dose: 20.0 mg/kg/injection, schedule: Q01DX005 (ip), vehicle: saline with Tween-80 105 % of control | dose: 40.0 mg/kg/injection, schedule: Q01DX005 (ip), vehicle: saline with Tween-80 105 % of control | dose: 80.0 mg/kg/injection, schedule: Q01DX005 (ip), vehicle: saline with Tween-80 111 % of control

O=C1NC2(CCCCC2)C(=O)N1CCN(CCCl)CCCl
inactive: [4] 101 % of control | dose: 1.0 mg/kg/injection, schedule: Q01DX005 (ip), vehicle: Klucel (hydroxypropylcellulose) (HPC) 101 % of control | [2] 105 % of control | [5] 100 % of control | dose: 2.0 mg/kg/injection, schedule: Q01DX005 (ip), vehicle: Klucel (hydroxypropylcellulose) (HPC) 105 % of control | [3] 93 % of control and 108 % of control | [6] 106 % of control | dose: 4.0 mg/kg/injection, schedule: Q01DX005 (ip), vehicle: Klucel (hydroxypropylcellulose) (HPC) 102 % of control | [7] 119 % of control | dose: 8.0 mg/kg/injection, schedule: Q01DX005 (ip), vehicle: Klucel (hydroxypropylcellulose) (HPC) 94 % of control and 107 % of control | [8] 114 % of control | dose: 16.0 mg/kg/injection, schedule: Q01DX005 (ip), vehicle: Klucel (hydroxypropylcellulose) (HPC) 97 % of control | dose: 32.0 mg/kg/injection, schedule: Q01DX005 (ip), vehicle: saline 111 % of control

N=C(N)SCc1c2ccccc2c(CSC(=N)N)c2ccccc12
inactive: dose: 2.5 mg/kg/injection, schedule: Q01DX005 (ip), vehicle: Klucel (hydroxypropylcellulose) (HPC) 99 % of control | dose: 5.0 mg/kg/injection, schedule: Q01DX005 (ip), vehicle: Klucel (hydroxypropylcellulose) (HPC) 100 % of control | dose: 10.0 mg/kg/injection, schedule: Q01DX005 (ip), vehicle: Klucel (hydroxypropylcellulose) (HPC) 90 % of control | dose: 20.0 mg/kg/injection, schedule: Q01DX005 (ip), vehicle: Klucel (hydroxypropylcellulose) (HPC) 102 % of control

Cc1[nH]c(=O)[nH]c(=O)c1N(CCF)CCCl
inactive: dose: 2.0 mg/kg/injection, schedule: Q01DX005 (ip), vehicle: saline with Tween-80 96 % of control and 104 % of control | dose: 4.0 mg/kg/injection, schedule: Q01DX005 (ip), vehicle: saline with Tween-80 97 % of control and 105 % of control | dose: 4.0 mg/kg/injection, schedule: Q## X006 (ip), vehicle: Klucel (hydroxypropylcellulose) (HPC) 111 % of control | dose: 8.0 mg/kg/injection, schedule: Q01DX005 (ip), vehicle: saline with Tween-80 97 % of control and 106 % of control | dose: 8.0 mg/kg/injection, schedule: Q## X006 (ip), vehicle: Klucel (hydroxypropylcellulose) (HPC) 106 % of control | dose: 8.0 mg/kg/injection, schedule: Q#A X002 (ip), vehicle: Klucel (hydroxypropylcellulose) (HPC) 101 % of control | dose: 16.0 mg/kg/injection, schedule: Q01DX001 (ip), vehicle: Klucel (hydroxypropylcellulose) (HPC) 93 % of control and 102 % of control | dose: 16.0 mg/kg/injection, schedule: Q01DX005 (ip), vehicle: saline with Tween-80 108 % of control and 109 % of control | dose: 16.0 mg/kg/injection, schedule: Q01DX005 (oral), vehicle: Klucel (hydroxypropylcellulose) (HPC) 111 % of control | dose: 16.0 mg/kg/injection, schedule: Q#A X002 (ip), vehicle: Klucel (hydroxypropylcellulose) (HPC) 99 % of control | dose: 32.0 mg/kg/injection, schedule: Q01DX001 (ip), vehicle: Klucel (hydroxypropylcellulose) (HPC) 92 % of control and 101 % of control and 105 % of control | dose: 32.0 mg/kg/injection, schedule: Q01DX005 (oral), vehicle: Klucel (hydroxypropylcellulose) (HPC) 94 % of control | dose: 32.0 mg/kg/injection, schedule: Q#A X002 (ip), vehicle: Klucel (hydroxypropylcellulose) (HPC) 111 % of control | dose: 64.0 mg/kg/injection, schedule: Q01DX001 (ip), vehicle: Klucel (hydroxypropylcellulose) (HPC) 101 % of control and 114 % of control | dose: 64.0 mg/kg/injection, schedule: Q01DX001 (oral), vehicle: Klucel (hydroxypropylcellulose) (HPC) 96 % of control and 107 % of control and 111 % of control | dose: 128.0 mg/kg/injection, schedule: Q01DX001 (ip), vehicle: Klucel (hydroxypropylcellulose) (HPC) 87 % of control | dose: 128.0 mg/kg/injection, schedule: Q01DX001 (oral), vehicle: Klucel (hydroxypropylcellulose) (HPC) 90 % of control and 111 % of control | dose: 256.0 mg/kg/injection, schedule: Q01DX001 (oral), vehicle: Klucel (hydroxypropylcellulose) (HPC) 107 % of control and 86 % of control | dose: 512.0 mg/kg/injection, schedule: Q01DX001 (oral), vehicle: Klucel (hydroxypropylcellulose) (HPC) 115 % of control
